In the NIST ThermoML archive (doi:10.1021/je300148f):

Settings: Liquid, isochoric method

FC(F)(F)C(F)(F)C(F)(F)F [octafluoropropane]
Settings | mass density [kg/m3]
203.51 K, 5337.7 kPa | 1748.65
203.54 K, 25066 kPa | 1795.66
207.93 K, 30528 kPa | 1795.05
207.94 K, 10279 kPa | 1747.98
212.07 K, 14905 kPa | 1747.39
212.65 K, 36376 kPa | 1794.41
216.5 K, 40978 kPa | 1793.89
216.54 K, 1000.8 kPa | 1689.31
216.88 K, 20281 kPa | 1746.74
217.62 K, 2018.3 kPa | 1689.13
218.87 K, 3201.2 kPa | 1688.94
220.1 K, 4356.8 kPa | 1688.75
221 K, 5191.7 kPa | 1688.62
221.04 K, 25052 kPa | 1746.18
225.96 K, 30368 kPa | 1745.54
226.4 K, 10304 kPa | 1687.87
230.5 K, 35314 kPa | 1744.96
231.73 K, 15327 kPa | 1687.19
234.92 K, 39898 kPa | 1744.41
235.64 K, 915.8 kPa | 1615.88
236.89 K, 20178 kPa | 1686.54
237.72 K, 1980.7 kPa | 1615.62
239.2 K, 3133.7 kPa | 1615.41
240.32 K, 3992.9 kPa | 1615.26
241.96 K, 25015 kPa | 1685.92
241.97 K, 5288.2 kPa | 1615.05
247.06 K, 29611 kPa | 1685.32
248.4 K, 10248 kPa | 1614.25
253.05 K, 1037.7 kPa | 1548.82
253.35 K, 35422 kPa | 1684.57
254.58 K, 2042.7 kPa | 1548.62
254.84 K, 15219 kPa | 1613.5
256.2 K, 3092.6 kPa | 1548.41
257.67 K, 4032.3 kPa | 1548.23
257.99 K, 39644 kPa | 1684.03
259.38 K, 5163.9 kPa | 1548.03
260.6 K, 5918.9 kPa | 1547.89
261.38 K, 20247 kPa | 1612.75
262.2 K, 6953.3 kPa | 1547.71
264.92 K, 1305.5 kPa | 1498.9
266.69 K, 2167.6 kPa | 1498.5
267.42 K, 10407 kPa | 1547.12
267.61 K, 24742 kPa | 1612.07
268.4 K, 3123.5 kPa | 1498.5
270.01 K, 4060.3 kPa | 1498.31
272.1 K, 5218.8 kPa | 1498.08
273.85 K, 29781 kPa | 1611.39
274.19 K, 14632 kPa | 1546.4
278.85 K, 1048.7 kPa | 1431.66
280.31 K, 34598 kPa | 1610.69
280.62 K, 9990.2 kPa | 1497.18
280.96 K, 2016.5 kPa | 1431.43
282.61 K, 20193 kPa | 1545.52
283.12 K, 3037.6 kPa | 1431.2
285.2 K, 4021.6 kPa | 1430.98
287.19 K, 39685 kPa | 1609.96
287.23 K, 4975.5 kPa | 1430.78
289.39 K, 15154 kPa | 1496.29
290.43 K, 25199 kPa | 1544.72
294.19 K, 1027.2 kPa | 1348.77
296.89 K, 2032 kPa | 1348.25
298.14 K, 10127 kPa | 1429.72
298.14 K, 10227 kPa | 1432.13
298.15 K, 20139 kPa | 1495.43
298.17 K, 30128 kPa | 1543.94
299.56 K, 3026.3 kPa | 1348.25
302.24 K, 4025.2 kPa | 1348
305.19 K, 5144.5 kPa | 1347.73
305.57 K, 34457 kPa | 1543.21
306.47 K, 24759 kPa | 1494.63
308.23 K, 15310 kPa | 1431.18
313.2 K, 39261 kPa | 1542.45
316.93 K, 30165 kPa | 1493.65
318.2 K, 1978.9 kPa | 1206.47
318.2 K, 2006.9 kPa | 1206.47
318.2 K, 10061 kPa | 1346.6
318.2 K, 19323 kPa | 1427.89
318.2 K, 20116 kPa | 1430.27
318.21 K, 9971.7 kPa | 1346.6
322.1 K, 2987.3 kPa | 1206.16
325.72 K, 35057 kPa | 1492.81
326.06 K, 3974.1 kPa | 1205.86
328.08 K, 24771 kPa | 1429.38
329.83 K, 4928.6 kPa | 1205.58
330.81 K, 14738 kPa | 1345.54
332.72 K, 39008 kPa | 1492.14
339.5 K, 7422.8 kPa | 1204.86
341.2 K, 30200 kPa | 1425.83
344.83 K, 20114 kPa | 1344.37
353.16 K, 23269 kPa | 1343.69
353.16 K, 35743 kPa | 1424.77
353.17 K, 10953 kPa | 1203.86

CCC [propane]
Settings | mass density [kg/m3]
207.35 K, 1466.9 kPa | 609.37
208.31 K, 2745.8 kPa | 609.32
209.06 K, 3635.6 kPa | 609.28
209.75 K, 4364.7 kPa | 609.25
215.17 K, 10724 kPa | 608.98
222.43 K, 1045.6 kPa | 592.03
222.75 K, 19646 kPa | 608.63
223.37 K, 2016.7 kPa | 591.98
224.52 K, 3087.1 kPa | 591.93
225.47 K, 4153.8 kPa | 591.89
226.91 K, 5632.5 kPa | 591.82
231.06 K, 30008 kPa | 608.23
231.07 K, 10051 kPa | 591.62
239.51 K, 39217 kPa | 607.87
240.49 K, 1194 kPa | 571.45
240.67 K, 19671 kPa | 591.21
240.92 K, 1528.8 kPa | 571.44
242.87 K, 3265.5 kPa | 571.39
244.55 K, 4758.9 kPa | 571.35
245.44 K, 5554 kPa | 571.33
250.1 K, 9711.4 kPa | 571.2
250.12 K, 29984 kPa | 590.79
251.11 K, 51133 kPa | 607.38
259.96 K, 1060.8 kPa | 547.54
261.06 K, 19770 kPa | 571.13
261.18 K, 40016 kPa | 590.35
261.19 K, 1975 kPa | 547.51
262.52 K, 2951.9 kPa | 547.48
262.52 K, 3059.7 kPa | 547.47
263.78 K, 4004 kPa | 547.44
265.28 K, 5120.2 kPa | 547.4
266.44 K, 5840.1 kPa | 547.37
267.87 K, 6954.7 kPa | 547.34
270.11 K, 49092 kPa | 589.98
270.22 K, 1044.7 kPa | 533.77
271.68 K, 2041.5 kPa | 533.71
272.12 K, 10829 kPa | 547.66
272.12 K, 30057 kPa | 570.94
272.13 K, 10235 kPa | 547.22
273.11 K, 3025.3 kPa | 533.66
274.51 K, 3979.1 kPa | 533.61
276.2 K, 5186.1 kPa | 533.54
283.08 K, 995.2 kPa | 515.52
283.43 K, 38987 kPa | 570.26
283.64 K, 10260 kPa | 533.26
284.77 K, 2002.1 kPa | 515.46
284.98 K, 19876 kPa | 546.88
286.56 K, 3090.5 kPa | 515.39
288.23 K, 4086.1 kPa | 515.33
289.9 K, 5086.2 kPa | 515.27
295.92 K, 49573 kPa | 569.78
297.68 K, 1075 kPa | 493.21
298.14 K, 10031 kPa | 514.99
298.15 K, 10038 kPa | 514.99
298.15 K, 19981 kPa | 532.71
298.15 K, 30027 kPa | 546.51
298.15 K, 30100 kPa | 546.7
298.18 K, 19921 kPa | 532.75
298.19 K, 20084 kPa | 532.74
299.62 K, 2037.9 kPa | 493.14
301.57 K, 3036.9 kPa | 493.08
303.56 K, 4053.8 kPa | 493.01
305.53 K, 5060.2 kPa | 492.95
311.44 K, 39238 kPa | 545.97
313.68 K, 30193 kPa | 532.17
315.23 K, 2005.2 kPa | 466.11
315.23 K, 9905.5 kPa | 492.64
315.23 K, 10017 kPa | 492.63
315.23 K, 19842 kPa | 514.41
317.42 K, 2930.2 kPa | 466.04
319.89 K, 3981.7 kPa | 465.97
322.25 K, 4976.5 kPa | 465.9
332.01 K, 29682 kPa | 513.86
333.97 K, 19538 kPa | 492.04
334.14 K, 9861.6 kPa | 465.55
344.57 K, 49972 kPa | 531.11
353.14 K, 29253 kPa | 491.45
353.14 K, 42004 kPa | 513.17
353.15 K, 17921 kPa | 464.99
